In US20230167132A1, “FORMS AND COMPOSITIONS OF INHIBITORS OF PLASMA KALLIKREIN” (Takeda Pharmaceutical Company Limited, priority 2020, published 2023):
Several values for one entry are separate records, joined by “and”; a condition that tells them apart may be missing. Equal entries are not always repeated. Entries after “also recorded” stand apart in the source; their conditions may differ. Where two headings read alike, the source gives them in different places.

Tests used:
[1] = Intrinsic Dissolution Rate (IDR), Sirius inForm; assay type: physicochemical; conditions: for IDR Sector 1 average (pH 2.0) / IDR Sector 1 pH 2.0: pH 2.0, 37° C.; for IDR Sector 1 pH 2.0: individual runs; for XRPD Analysis Post Dissolution: solid form of disc after IDR analysis; for sector 1 IDR compared to free base form Compound 1 Form 1 / other forms: pH 2.0, comparison in words
Protocol: About 40 mg of the sample was compressed in a 6 mm disc recess, under 100 kg for 2 minutes, with greaseproof paper on the compression base, to form nondisintegrating discs. The discs were then plugged with a bung so that only one surface was exposed to the media during analysis and transferred to the Sirius inForm dissolution apparatus. Analysis was performed at 37° C. in 40 mL media (36 mL ISA water, 4 mL 0.1 M Acetate Phosphate Buffer). Dissolution data were collected over 4 pH sectors (pH 2.0, 5.5, 6.5, and 7.4) for a total of 2 hours—30 minutes per sector, with UV spectra collected every 30 seconds. A stir speed of 225 rpm was used with a 10 mm path length probe. The IDR was calculated based on the surface area of the 3/6/8 mm disc recess used (28.3 mm2 surface area). XRPD analysis was performed on all samples, both after compression of the material into the disc recess, and post dissolution analysis to observe any change in form. XRPD diffractograms were collected on the Bruker C2.

[2] = Gravimetric vapour sorption (GVS) analysis; assay type: physicochemical; conditions: for XRPD post GVS analysis: change of solid form after GVS; for GVS hygroscopicity: classification in words
[3] = Storage for one week at 40° C./75% RH and 25° C./97% RH, XRPD; assay type: physicochemical
[4] = Competitive slurry / thermodynamic stability of solid forms; assay type: physicochemical; conditions: competitive slurries at 5 and 50° C. in selected solvents, XRPD
Protocol: To these, 40 vol (1 mL) selected solvents was added and the material slurried at 5° C. or 50° C. for 72 hours on a HEL polyblock (500 rpm stirring). Solids were subsequently isolated by filtration and dried under suction prior to analysis by XRPD. In all but one experiment, Form 1 was the sole detectable phase by XRPD obtained after 72 hours.
These were mixed, and then aliquots (20 mg) of this mixture were dispensed into HPLC vials and 90 vol (1.8 mL) selected solvents added. Samples were slurried using a Polar Bear with 500 rpm magnetic stirring at 5 and 50° C. After 24 hours, aliquots were removed and analysed by XRPD. Experiment numbers: 01-10.
120 mg of both Compound 6 Pattern 1 and Compound 6 Pattern 4 were dispensed into a 20 mL vial. These were mixed, and then aliquots (20 mg) of this mixture was dispensed into HPLC vials and 90 vol selected solvents were added. Samples were slurried using a Polar Bear with 500 rpm magnetic stirring. Aliquots were removed after four days and analyzed by XRPD.

[5] = Solubility of Compound 1 in various solvents; assay type: physicochemical
Protocol: Solubility of >10 mg/mL was only observed in DMSO, NMP and MeOH:DCM 1:3 at 50° C.

plasma kallikrein = plasma kallikrein (Homo sapiens, UniProt P03952); conditions: in vitro kallikrein kinase assay, reported in the '129 publication; cited from earlier work
[6] = one week (7 days), scaled-up / characterised material

Sequence of plasma kallikrein (P03952 20-638, species assumed): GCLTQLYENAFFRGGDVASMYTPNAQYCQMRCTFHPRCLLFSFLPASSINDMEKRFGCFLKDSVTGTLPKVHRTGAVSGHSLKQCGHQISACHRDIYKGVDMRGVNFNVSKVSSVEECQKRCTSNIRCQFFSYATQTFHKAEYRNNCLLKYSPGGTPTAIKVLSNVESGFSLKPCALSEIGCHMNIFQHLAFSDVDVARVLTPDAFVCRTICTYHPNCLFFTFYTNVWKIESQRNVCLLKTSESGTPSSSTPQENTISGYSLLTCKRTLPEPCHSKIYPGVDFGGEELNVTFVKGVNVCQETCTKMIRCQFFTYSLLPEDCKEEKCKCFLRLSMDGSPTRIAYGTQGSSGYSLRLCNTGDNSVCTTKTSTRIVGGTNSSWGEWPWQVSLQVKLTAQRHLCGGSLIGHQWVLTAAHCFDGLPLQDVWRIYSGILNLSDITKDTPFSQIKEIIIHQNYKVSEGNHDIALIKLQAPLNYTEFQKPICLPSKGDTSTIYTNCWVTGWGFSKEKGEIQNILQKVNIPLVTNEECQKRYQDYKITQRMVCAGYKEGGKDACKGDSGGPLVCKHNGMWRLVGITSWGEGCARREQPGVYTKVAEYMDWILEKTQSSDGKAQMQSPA

## O=C(NCc1ncn2ccc(Cl)c(F)c12)c1cn(Cc2cn3cc(C4CC4)ccc3n2)nn1 [Compound 1 Form 1, N-((7-chloro-8-fluoroimidazo[1,5-a]pyridin-1-yl)methyl)-1-((6-cyclopropylimidazo[1,2-a]pyridin-2-yl)methyl)-1H-1,2,3-triazole-4-carboxamide]
[1]
  IDR Sector 1 average (pH 2.0): 104.8 μg/min/cm^2
  IDR Sector 1 pH 2.0: 104.3 μg/min/cm^2 and 105.2 μg/min/cm^2
  XRPD Analysis Post Dissolution: No change
[2]; RH range not given
  GVS increase in mass: 0.5%
[2]
  XRPD post GVS analysis: Material unchanged by XRPD post GVS
  GVS hygroscopicity: slightly hygroscopic
[3]; [6]
  Storage 25° C./97% RH, XRPD: Compound 1 Form 1
  Storage 40° C./75% RH, XRPD: Compound 1 Form 1
[4]
  thermodynamic stability relative to other solid forms: more thermodynamically stable than Compound 1 Form 3
[4]; listed as Form 1
  thermodynamic stability relative to other solid forms: more thermodynamically stable than Form 2; also recorded: more thermodynamically stable polymorph; also recorded: polymorph most stable to typical storage and process conditions

## O=C(NCc1ncn2ccc(Cl)c(F)c12)c1cn(Cc2cn3cc(C4CC4)ccc3n2)nn1 [Compound 1, N-((7-chloro-8-fluoroimidazo[1,5-a]pyridin-1-yl)methyl)-1-((6-cyclopropylimidazo[1,2-a]pyridin-2-yl)methyl)-1H-1,2,3-triazole-4-carboxamide]
[5]; 25 °C, organic solvent or mixture, all solvents assessed, Compound 1 as synthesized in Example 1, read-out: solubility at 25° C.
  solubility: < 10000 µg/mL
[5]; Acetone, 50 °C, organic solvent or mixture, read-out: Solubility at 50° C.
  solubility: < 10000 µg/mL
[5]; Acetone:H2O 9:1, 50 °C, organic solvent or mixture, read-out: Solubility at 50° C.
  solubility: < 10000 µg/mL
[5]; Acetonitrile, 50 °C, organic solvent or mixture, read-out: Solubility at 50° C.
  solubility: < 10000 µg/mL
[5]; Acetonitrile:H2O 1:1, 50 °C, aqueous with cosolvent or surfactant or cyclodextrin, read-out: Solubility at 50° C.
  solubility: < 10000 µg/mL
[5]; DCM, 50 °C, organic solvent or mixture, read-out: Solubility at 50° C.
  solubility: < 10000 µg/mL
[5]; DMAC, 50 °C, organic solvent or mixture, read-out: Solubility at 50° C.
  solubility: < 10000 µg/mL
[5]; DMF, 50 °C, organic solvent or mixture, read-out: Solubility at 50° C.
  solubility: < 10000 µg/mL
[5]; DMSO
  Solubility at 50° C.: >10000 µg/mL
[5]; DMSO, 50 °C, organic solvent or mixture, read-out: Solubility at 50° C.
  solubility: > 10000 µg/mL
[5]; Ethanol, 50 °C, organic solvent or mixture, read-out: Solubility at 50° C.
  solubility: < 10000 µg/mL
[5]; Ethyl acetate, 50 °C, organic solvent or mixture, read-out: Solubility at 50° C.
  solubility: < 10000 µg/mL
[5]; IPA, 50 °C, organic solvent or mixture, read-out: Solubility at 50° C.
  solubility: < 10000 µg/mL
[5]; IPAC, 50 °C, organic solvent or mixture, read-out: Solubility at 50° C.
  solubility: < 10000 µg/mL
[5]; MEK, 50 °C, organic solvent or mixture, read-out: Solubility at 50° C.
  solubility: < 10000 µg/mL
[5]; MIBK, 50 °C, organic solvent or mixture, read-out: Solubility at 50° C.
  solubility: < 10000 µg/mL
[5]; MeOH:Chlorobenzene (1:1), 50 °C, organic solvent or mixture, read-out: Solubility at 50° C.
  solubility: < 10000 µg/mL
[5]; MeOH:DCM 1:3
  Solubility at 50° C.: >10000 µg/mL
[5]; MeOH:DCM 1:3, 50 °C, organic solvent or mixture, read-out: Solubility at 50° C.
  solubility: > 10000 µg/mL
[5]; MeOH:H2O 9:1, 50 °C, organic solvent or mixture, read-out: Solubility at 50° C.
  solubility: < 10000 µg/mL
[5]; MeOH:Toluene (1:1), 50 °C, organic solvent or mixture, read-out: Solubility at 50° C.
  solubility: < 10000 µg/mL
[5]; MeOH:anisole (1:1), 50 °C, organic solvent or mixture, read-out: Solubility at 50° C.
  solubility: < 10000 µg/mL
[5]; Methanol, 50 °C, organic solvent or mixture, read-out: Solubility at 50° C.
  solubility: < 10000 µg/mL
[5]; NMP
  Solubility at 50° C.: >10000 µg/mL
[5]; NMP, 50 °C, organic solvent or mixture, read-out: Solubility at 50° C.
  solubility: > 10000 µg/mL
[5]; TBME, 50 °C, organic solvent or mixture, read-out: Solubility at 50° C.
  solubility: < 10000 µg/mL
[5]; THF, 50 °C, organic solvent or mixture, read-out: Solubility at 50° C.
  solubility: < 10000 µg/mL
[5]; THF:H2O 9:1, 50 °C, organic solvent or mixture, read-out: Solubility at 50° C.
  solubility: < 10000 µg/mL
[5]; Toluene, 50 °C, organic solvent or mixture, read-out: Solubility at 50° C.
  solubility: < 10000 µg/mL
[5]; n-heptane, 50 °C, organic solvent or mixture, read-out: Solubility at 50° C.
  solubility: < 10000 µg/mL
[5]; t-BuOH, 50 °C, organic solvent or mixture, read-out: Solubility at 50° C.
  solubility: < 10000 µg/mL
[5]; t-BuOH:H2O 1:1, 50 °C, aqueous with cosolvent or surfactant or cyclodextrin, read-out: Solubility at 50° C.
  solubility: < 10000 µg/mL
Plasma kallikrein
  EC50: < 1 nM

## O=C(NCc1ncn2ccc(Cl)c(F)c12)c1cn(Cc2cn3cc(C4CC4)ccc3n2)nn1.O=C(O)C(=O)O [Compound 6 Pattern 1]
[1]
  IDR Sector 1 average (pH 2.0): 866.8 μg/min/cm^2
  sector 1 IDR compared to free base form Compound 1 Form 1 / other forms: increased sector 1 IDR
[1]; listed as Oxalate Pattern 1
  IDR Sector 1 average (pH 2.0): 866.8 μg/min/cm^2
  IDR Sector 1 pH 2.0: 895.9 μg/min/cm^2 and 837.7 μg/min/cm^2
  XRPD Analysis Post Dissolution: Partial conversion to Compound 1
[2]; between 0 and 90% RH
  GVS mass increase: 0.6%
[2]
  XRPD post GVS analysis: no observed change
  GVS hygroscopicity: slightly hygroscopic
[3]; [6]
  Storage 25° C./97% RH, XRPD: unchanged by XRPD
  Storage 40° C./75% RH, XRPD: unchanged by XRPD
[3]; one week, material isolated from salt/cocrystal screening experiments
  Storage 40° C./75% RH, XRPD: slightly changed
[4]; listed as Oxalate Pattern 1
  thermodynamic stability relative to other solid forms: Less thermodynamically stable

## O=C(NCc1ncn2ccc(Cl)c(F)c12)c1cn(Cc2cn3cc(C4CC4)ccc3n2)nn1.O=C(O)C(=O)O [Compound 6 Pattern 4]
[1]; listed as Oxalate Pattern 4
  IDR Sector 1 average (pH 2.0): 674.7 μg/min/cm^2
  IDR Sector 1 pH 2.0: 692.8 μg/min/cm^2 and 656.6 μg/min/cm^2
  XRPD Analysis Post Dissolution: Partial conversion to Compound 1
[1]
  sector 1 IDR compared to free base form Compound 1 Form 1 / other forms: increased sector 1 IDR
[2]; between 0 and 90% RH
  GVS mass loss: 0.66%
[2]
  XRPD post GVS analysis: unchanged
  GVS hygroscopicity: slightly hygroscopic
[3]; [6]
  Storage 25° C./97% RH, XRPD: unchanged by XRPD
  Storage 40° C./75% RH, XRPD: unchanged by XRPD
[4]
  thermodynamic stability relative to other solid forms: more thermodynamically stable of the two solvent-free oxalate salts; also recorded: more thermodynamically stable than Compound 6 Pattern 1
[4]; listed as Oxalate Pattern 4
  thermodynamic stability relative to other solid forms: More thermodynamically stable
